# Literature values in patent US11647710B2, “Method for preparation of soybean leaf having high content of isoflavone derivative in dark condition and soybean leaf having high content of isoflavone derivative prepared thereby” (INDUSTRY-ACADEMIC COOPERATION FOUNDATION GYEONGSANG …, priority 2019, dated 2023).
# Target: ER-beta (estrogen receptor beta) (Rattus norvegicus, UniProt Q62986)
# Conditions: Endocrinology 1997, 863; cited from earlier work
# Sequence of ER-beta (estrogen receptor beta) (Q62986 whole entry): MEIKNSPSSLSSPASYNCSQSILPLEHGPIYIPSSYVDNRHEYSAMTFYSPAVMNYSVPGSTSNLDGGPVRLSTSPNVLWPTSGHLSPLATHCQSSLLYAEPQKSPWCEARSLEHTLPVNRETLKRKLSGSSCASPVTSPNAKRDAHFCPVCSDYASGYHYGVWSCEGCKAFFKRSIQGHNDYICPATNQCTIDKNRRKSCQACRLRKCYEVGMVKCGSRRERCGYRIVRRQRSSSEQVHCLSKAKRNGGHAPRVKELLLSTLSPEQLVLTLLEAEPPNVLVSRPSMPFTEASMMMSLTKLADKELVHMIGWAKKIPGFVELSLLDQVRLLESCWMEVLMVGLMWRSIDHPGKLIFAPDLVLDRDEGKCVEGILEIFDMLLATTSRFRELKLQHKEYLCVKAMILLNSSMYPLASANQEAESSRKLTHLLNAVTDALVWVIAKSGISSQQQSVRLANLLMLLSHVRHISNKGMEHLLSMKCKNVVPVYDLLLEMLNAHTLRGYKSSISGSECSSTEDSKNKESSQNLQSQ
smiles,measurement,value
O=c1c(-c2ccc(O)cc2)coc2cc(O)ccc12 [daidzein],affinity for ER-beta,high affinity
